Data: PubChem BioAssay AID1845194 (Molecular Pharmacology Branch, DTP, NCI, 2023)
Several values for one entry are separate records, joined by “and”; a condition that tells them apart may be missing. Identical values can stand only once.

Tested on: 287954-098-R-J1 tumor spheroid viability
Test: Anticancer human tumor 287954-098-R-J1 patient-derived Ewing sarcoma cell line growth inhibition
Settings: spheroids with HUVEC and MSC; for viability, T/C: stronger effect = lower value
Method in brief: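 Complex spheroids of malignant cells with endothelial cells and mesenchymal stem cells; agents alone or combined, from near clinical Cmax (or 10 microM if unknown) down in half-log steps, 0.25% DMSO final.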
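Further: spheroids exposed to compound for 7 days before viability readout.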
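Wherever viability, T/C is given: luminescent signal taken as surrogate of viable cell content; 100% = DMSO vehicle control viability and lower means growth inhibition.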

## Cc1cc(C)c(CNC(=O)c2cc(-c3ccc(CN4CCOCC4)cc3)cc3c2cnn3C2CCCC2)c(=O)[nH]1 + Cn1nnc2c(C(N)=O)ncn2c1=O
Curve of first compound, second compound 1 µM
  IC50: > 10000 nM
Curve of first compound, second compound 3.16 µM
  IC50: > 10000 nM
Curve of first compound, second compound 10 µM
  IC50: > 10000 nM
Curve of first compound, second compound 31.6 µM
  IC50: > 10000 nM
Curve of first compound, second compound 100 µM
  IC50: > 10000 nM
Second compound 1 µM, first compound 0.0316 µM
  viability, T/C: 104%
Second compound 1 µM, first compound 0.1 µM
  viability, T/C: 100%
Second compound 1 µM, first compound 0.316 µM
  viability, T/C: 100%
Second compound 1 µM, first compound 1 µM
  viability, T/C: 103%
Second compound 1 µM, first compound 3.16 µM
  viability, T/C: 105%
Second compound 1 µM, first compound 10 µM
  viability, T/C: 115%
Second compound 3.16 µM, first compound 0.0316 µM
  viability, T/C: 105%
Second compound 3.16 µM, first compound 0.1 µM
  viability, T/C: 107%
Second compound 3.16 µM, first compound 0.316 µM
  viability, T/C: 100%
Second compound 3.16 µM, first compound 1 µM
  viability, T/C: 108%
Second compound 3.16 µM, first compound 3.16 µM
  viability, T/C: 107%
Second compound 3.16 µM, first compound 10 µM
  viability, T/C: 108%
Second compound 10 µM, first compound 0.0316 µM
  viability, T/C: 110%
Second compound 10 µM, first compound 0.1 µM
  viability, T/C: 108%
Second compound 10 µM, first compound 0.316 µM
  viability, T/C: 107%
Second compound 10 µM, first compound 1 µM
  viability, T/C: 106%
Second compound 10 µM, first compound 3.16 µM
  viability, T/C: 99.3%
Second compound 10 µM, first compound 10 µM
  viability, T/C: 111%
Second compound 31.6 µM, first compound 0.0316 µM
  viability, T/C: 108%
Second compound 31.6 µM, first compound 0.1 µM
  viability, T/C: 117%
Second compound 31.6 µM, first compound 0.316 µM
  viability, T/C: 109%
Second compound 31.6 µM, first compound 1 µM
  viability, T/C: 105%
Second compound 31.6 µM, first compound 3.16 µM
  viability, T/C: 108%
Second compound 31.6 µM, first compound 10 µM
  viability, T/C: 105%
Second compound 100 µM, first compound 0.0316 µM
  viability, T/C: 108%
Second compound 100 µM, first compound 0.1 µM
  viability, T/C: 113%
Second compound 100 µM, first compound 0.316 µM
  viability, T/C: 111%
Second compound 100 µM, first compound 1 µM
  viability, T/C: 107%
Second compound 100 µM, first compound 3.16 µM
  viability, T/C: 96.2%
Second compound 100 µM, first compound 10 µM
  viability, T/C: 104%

## Cn1ncnc1[C@H]1c2n[nH]c(=O)c3cc(F)cc(c23)N[C@@H]1c1ccc(F)cc1 + COc1cc2c(cc1O)CCNC21CSC2c3c(OC(C)=O)c(C)c4c(c3C(COC1=O)N1C(O)C3Cc5cc(C)c(OC)c(O)c5C(C21)N3C)OCO4
Curve of first compound, second compound 30 pM
  IC50: 575 nM
Curve of first compound, second compound 94.9 pM
  IC50: 477 nM
Curve of first compound, second compound 0.0003 µM
  IC50: 39 nM
Curve of first compound, second compound 0.000949 µM
  IC50: < 9.49 nM
Curve of first compound, second compound 0.003 µM
  IC50: < 9.49 nM
Second compound 30 pM, first compound 0.00949 µM
  viability, T/C: 99%
Second compound 30 pM, first compound 0.03 µM
  viability, T/C: 111%
Second compound 30 pM, first compound 0.0949 µM
  viability, T/C: 102%
Second compound 30 pM, first compound 0.3 µM
  viability, T/C: 97.6%
Second compound 30 pM, first compound 0.949 µM
  viability, T/C: 13.3%
Second compound 30 pM, first compound 3 µM
  viability, T/C: 1.27%
Second compound 94.9 pM, first compound 0.00949 µM
  viability, T/C: 107%
Second compound 94.9 pM, first compound 0.03 µM
  viability, T/C: 104%
Second compound 94.9 pM, first compound 0.0949 µM
  viability, T/C: 106%
Second compound 94.9 pM, first compound 0.3 µM
  viability, T/C: 82.7%
Second compound 94.9 pM, first compound 0.949 µM
  viability, T/C: 1.42%
Second compound 94.9 pM, first compound 3 µM
  viability, T/C: 1.02%
Second compound 0.0003 µM, first compound 0.00949 µM
  viability, T/C: 81.8%
Second compound 0.0003 µM, first compound 0.03 µM
  viability, T/C: 63%
Second compound 0.0003 µM, first compound 0.0949 µM
  viability, T/C: 6%
Second compound 0.0003 µM, first compound 0.3 µM
  viability, T/C: 1.31%
Second compound 0.0003 µM, first compound 0.949 µM
  viability, T/C: 0.92%
Second compound 0.0003 µM, first compound 3 µM
  viability, T/C: 0.91%
Second compound 0.000949 µM, first compound 0.00949 µM
  viability, T/C: 0.31%
Second compound 0.000949 µM, first compound 0.03 µM
  viability, T/C: 0.21%
Second compound 0.000949 µM, first compound 0.0949 µM
  viability, T/C: 0.23%
Second compound 0.000949 µM, first compound 0.3 µM
  viability, T/C: 0.13%
Second compound 0.000949 µM, first compound 0.949 µM
  viability, T/C: 0.04%
Second compound 0.000949 µM, first compound 3 µM
  viability, T/C: 0.12%
Second compound 0.003 µM, first compound 0.00949 µM
  viability, T/C: 0.16%
Second compound 0.003 µM, first compound 0.03 µM
  viability, T/C: 0.17%
Second compound 0.003 µM, first compound 0.0949 µM
  viability, T/C: 0.13%
Second compound 0.003 µM, first compound 0.3 µM
  viability, T/C: 0.12%
Second compound 0.003 µM, first compound 0.949 µM
  viability, T/C: 0.12%
Second compound 0.003 µM, first compound 3 µM
  viability, T/C: 0.2%

## Cc1cc(C)c(CNC(=O)c2cc(-c3ccc(CN4CCOCC4)cc3)cc3c2cnn3C2CCCC2)c(=O)[nH]1
Compound 0.0316 µM
  viability, T/C: 104% and 106% and 95.4%
Compound 0.1 µM
  viability, T/C: 95.6% and 106% and 114%
Compound 0.316 µM
  viability, T/C: 99.8% and 99.5% and 103%
Compound 1 µM
  viability, T/C: 102% and 97.1% and 101%
Compound 3.16 µM
  viability, T/C: 98.2% and 112% and 109%
Compound 10 µM
  viability, T/C: 113% and 108% and 114%
Curve of compound
  IC50: > 10000 nM
